Data: patent US20120060834A1, “PHARMACEUTICAL PREPARATION TO BE ADMINISTERED INTO RESPIRATORY ORGANS FOR TREATING OR PREVENTING INFLAMMATORY RESPIRATORY DISEASES, AND METHOD FOR TREATING OR PREVENTING SUCH DISEASES” (Postech Academy-Industry Foundation, priority 2009, published 2012)

Key:
[1] = test system: asthma animal model exhibiting TH1+TH17 immune responses; assay: Therapeutic efficacy of WKYMVm upon intranasal administration in asthma mouse model; format: in vivo, BALB/c mice
Experimental: (§1) This sensitization was performed on Day 0, 1, 2 and 7. […] Meanwhile, the mice of the positive control were intraperitoneally administered with the same dose of phosphate-buffered saline (PBS). For a negative control, the sensitization on Day 0, 1, 2 and 7 and the challenge on Day 14, 15, 21, and 22 were conducted in the same manner as in the positive control, except that PBS was used instead of the allergen.
Twenty four hours after the final administration of the allergen (Day 23), the mice were examined for bronchial hypersensitivity to methacholine. In this context, the mice were placed in a chamber and allowed to inhale PBS for 3 min with the aid of a nebulizer, followed by measuring penh (enhanced pause) values for 3 min by means of non-invasive whole body plethysmography (Allmedicus, Korea). Likewise, the mice were allowed to inhale 6.25, 12.5, 25 and 50 mg/ml methacholine PBS sequentially, after which penh values for each concentration were measured. A mean of the penh values measured for 3 min was used as an index of airway obstruction.
(§2) Pulmonary inflammation was examined 6 hours (Day 22) and 48 hours (Day 24) after the final administration of the allergen. On Days 22 and 24, after mice were anesthetized by intraperitoneally injecting a mixture of ketamine and xylazine thereto, they were subjected to thoracotomy to expose the trachea into which a catheter was then inserted. After suturing the mice, 1 mL of germ-free PBS was infused twice to wash the airway to give bronchoalveolar lavage fluid (hereinafter referred to as “'BAL fluid”). For analyzing T-lymphocytes in lung tissues, the lung was excised and cells were extracted from local lymph nodes.
(§3) Following centrifugation of the BAL fluid at 3000 rpm and at 4° C. for 10 min, the cell pellet thus formed was suspended in PBS, and rolled on slide using a cytospin and stained with Diff
(§4) Quick. More than 300 inflammatory cells were observed under an optical microscope with […] magnification to determine cell counts by cell types, that is, macrophage, lymphocyte, neutrophil, and eosinophil. In the BAL fluid, the cytokines involved in Th1-mediated inflammation, such as gamma interferon, interferon-g-inducible protein 10 (IP-10), and IL-12, the cytokines involved in Th2-mediated inflammation, such as interleukin IL-4 and IL-13, the cytokines involved in Th17-mediated inflammation, such as IL-17, TNF-α and IL-6, and the cytokines involved in Th2- and Th17-mediated inflammation, such as TGF-13, were quantified using ELISA.
(§5) The excised pulmonary tissue was treated with collagenase type IV (Sigma) to separate cells therefrom. The cells were surface stained with anti-CD3, anti-CD4, and anti-CD8 antibodies (BD Pharmingen), all being conjugated with a fluorescent and the membrane was perforated with Triton, followed by intracellular cytokine staining with anti-IFN-γ, anti-IL-17, anti-IL-10 and anti-IL-4 antibodies. Types of the T lymphocytes introduced into the lung were analyzed using the fluorescence activated cell scanner FACSCalibur (Becton Dickinson).
(§6) After the cells extracted from the lymph nodes were incubated for 72 hours in PBS containing 100 μg/ml OVA, gamma interferon, IL-17 and IL-4, which are the cytokines involved in Th1-, Th17- and Th2-mediated inflammation, were quantified using ELISA.
The assay was performed in the same manner as in the Comparative Example, except that WKYMVm was administered intranasally instead of intraperitoneally. […] The other procedure was performed in the same manner as in the Comparative Example.

[2] = test system: asthma animal model exhibiting TH1+TH17 immune responses; assay: Therapeutic efficacy of WKYMVm upon systemic administration by intraperitoneal injection in asthma mouse model; format: in vivo, BALB/c mice
Experimental: as §1, with “allergen. […]” for “allergen.”
as §2, §3, §4, §5, §6

[3] = molecular target: T1, FPR (formyl peptide receptor) (Homo sapiens, UniProt P21462); conditions: cited from earlier work
T1 sequence (P21462 1-350): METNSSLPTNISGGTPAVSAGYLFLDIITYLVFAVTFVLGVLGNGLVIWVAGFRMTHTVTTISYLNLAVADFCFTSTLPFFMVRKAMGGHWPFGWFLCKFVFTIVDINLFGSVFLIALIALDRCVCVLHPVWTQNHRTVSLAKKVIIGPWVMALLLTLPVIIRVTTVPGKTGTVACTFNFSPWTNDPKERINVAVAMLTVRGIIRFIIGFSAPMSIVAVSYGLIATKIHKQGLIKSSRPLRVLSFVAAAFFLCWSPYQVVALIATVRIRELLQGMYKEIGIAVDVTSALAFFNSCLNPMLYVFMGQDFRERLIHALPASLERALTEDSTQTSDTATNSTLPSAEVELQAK

## Trp-Lys-Tyr-Met-Val-D-Met-CONH2 [WKYMVm]
[1]; direct administration via the nasal cavity compared with systemic administration
  suppressive effects on bronchial hypersensitivity and pulmonary inflammation: higher suppressive effects
[1]; intranasal 200 μg/kg, Day 22, 6 hours after allergen, vs sham (positive control), FIG. 8
  inflammatory cell count of BAL fluid: no differences
[1]; intranasal 200 μg/kg, Day 22, vs positive control, FIG. 9a
  release of gamma interferon by immune cells separated from local lymph nodes (in vitro): higher level
[1]; intranasal 200 μg/kg, Day 22, vs positive control, FIG. 9b
  gamma interferon-expressing CD4+ T cells from pulmonary tissue (count): higher
[1]; intranasal 200 μg/kg, Day 22, vs positive control, FIG. 9c
  level of gamma interferon in BAL fluid: reduced
[1]; intranasal 200 μg/kg, Day 22, vs positive control, FIG. 10
  IL-17 released by local lymph node immune cells stimulated in vitro with allergen: higher amount
[1]; intranasal 200 μg/kg, Day 22, vs positive control, FIG. 10b
  IL-17-expressing CD4+ T cells from pulmonary tissues (count): more numerous
[1]; intranasal 200 μg/kg, Day 22, vs positive control, FIG. 10c
  level of IL-17 in BAL fluid: reduced
[1]; intranasal 200 μg/kg, Day 22, vs positive control, FIG. 11a
  expression of Th2 cytokines in T cells of pulmonary tissues: reduced
[1]; intranasal 200 μg/kg, Day 22, vs positive control, FIG. 11b
  expression level of IL-10 in T cells of pulmonary tissues: increased
[1]; intranasal 200 μg/kg, Day 22, vs positive control, FIG. 12a
  release of IP-10 in BAL fluid: reduced
[1]; intranasal 200 μg/kg, Day 22, vs positive control, FIG. 12b
  release of IL-12p40 in BAL fluid: reduced
[1]; intranasal 200 μg/kg, Day 22, vs positive control, FIG. 12c
  release of TNF-α in BAL fluid: lower levels
[1]; intranasal 200 μg/kg, Day 22, vs positive control, FIG. 12e
  level of MCP-1 in BAL fluid: lower levels
[1]; intranasal 200 μg/kg, Day 22, vs positive control, FIG. 12f
  level of MIP-1a in BAL fluid: lower levels
[1]; intranasal 200 μg/kg, Day 22, vs positive control, FIG. 12d
  release of IL-1β in BAL fluid: lower levels
[1]; intranasal 200 μg/kg, Day 24, vs positive control, FIG. 15
  release of IL-17 into BAL fluid: increased
[1]; intranasal 200 μg/kg, Day 24, vs positive control, FIG. 15b
  release of TGF-β from inflammatory cells (BAL fluid): significantly reduced
[1]; intranasal 200 μg/kg, Day 24, vs positive control, FIG. 16a
  level of IL-12p40 in BAL fluid: higher levels
[1]; intranasal 200 μg/kg, Day 24, vs positive control, FIG. 16b
  level of IP-10 in BAL fluid: higher levels
[2]; i.p. 4 mg/kg, Day 22, 6 hours after final allergen, vs sham (positive control), FIG. 2
  inflammatory cell count in BAL fluid: increase
[2]; i.p. 4 mg/kg, Day 22, FIG. 3a
  release of gamma interferon by inflammatory cells separated from pulmonary tissue: increased
[2]; i.p. 4 mg/kg, Day 22, FIG. 3b
  level of IP-10 in BAL fluid: increased levels
[2]; i.p. 4 mg/kg, Day 22, FIG. 3c
  level of IL-12p40 in BAL fluid: increased levels
[2]; i.p. 4 mg/kg, Day 22, FIG. 4a
  number of IL-17-expressing CD4+ T cells from pulmonary tissues: increase in number
[2]; i.p. 4 mg/kg, Day 22, FIG. 4b
  level of IL-17 released to BAL fluid: increase
[2]; i.p. 4 mg/kg, Day 22, FIG. 5a
  level of IL-6 in BAL fluid: increased levels
[2]; i.p. 4 mg/kg, Day 22, FIG. 5b
  level of TNF-α in BAL fluid: increased levels
[2]; i.p. 4 mg/kg, Day 24, 48 hours after final allergen, vs sham, FIG. 6
  inflammatory cell count in BAL: there was a difference
[2]; i.p. 4 mg/kg, Day 24, vs sham, FIG. 7a
  level of IL-12p40 (ELISA): no significant differences
[2]; i.p. 4 mg/kg, Day 24, vs sham, FIG. 7b
  level of TGF-β (ELISA): no significant differences
[2]; systemic (intraperitoneal) administration
  pulmonary/respiratory inflammation (overall conclusion): did not ameliorate
[3]
  binding to FPR: known to bind
